Laboratory results taken from US6500414B2, “Aromatic dimethicone copolyol polymers as sunscreen agents in personal care applications” (Siltech LLC, priority 2000, dated 2002).

Test: UV maxima for the absorption
Format: physicochemical
Conditions: spectral region of the absorption
Description: The following comparison is a common silicone backbone, with differing, “b”, and “c” values. The effect upon solubility at 5% in water and the UV maxima for the absorption are quite dramatic.

UV absorption region: UV-C region
SMILES: C=CCc1ccc(O)c(OC)c1 [eugenol, 2-methoxy-4-(2 propenyl)phenol]
